Experiment: Experimental stability/excipient compatibility study of prototype formulation
Format: physicochemical
Conditions: with Vitamin E polyethylene glycol succinate and gelatin capsule shell; 25° C./60% RH and 40° C./75% RH over a 1-month period
Description: A homogeneous solution of Compound I is formed with the Vitamin E polyethylene glycol succinate (TPGS), which enables good uniformity of content to be achieved at low strengths.

Degradation of Compound I in prototype formulation: No significant degradation
SMILES: Cc1c(-c2ccnc(C(F)(F)F)c2)ncn1CC(=O)Nc1ccc(-c2cnccn2)cn1 [Compound I]

Source: patent publication US20240082244A1, “PHARMACEUTICAL FORMULATION” (Redx Pharma PLC, priority 2021, published 2024)
